For one data set, the system named is S. marcescens I AM 1184. Put plainly: In vitro antibacterial activity, agar disc dilution method. Format: cell-based. Particulars: Serratia marcescens, IAM1184; S. marcescens I AM 1184; Mueller Hinton agar, 10^6/ml, 37°C for 16 hours; read-out: minimum growth inhibitory concentration (MIC). As to the method:
(§1) An in vitro antibacterial activity was measured by an agar disc dilution method.
(§2) Varied test bacteria were cultivated overnight in triptophane-soybroth. A Mueller Hinton agar containing the compound of this invention in varied concentrations was streaked with one platinum loopful of each of the bacteria (number of living cells 10^6/ml).

The test system of a further data set is B. subtilis ATCC 6633. The data set is described as above. Format: cell-based. Particulars: Bacillus subtilis, ATCC6633; B. subtilis ATCC 6633; Mueller Hinton agar, 10^6/ml, 37°C for 16 hours; read-out: minimum growth inhibitory concentration (MIC). As to the method: as §1, §2
Another data set concerns S. aureus Terajima. The description is as above. Format: cell-based. To be noted: Staphylococcus aureus; S. aureus Terajima; Mueller Hinton agar, 10^6/ml, 37°C for 16 hours; read-out: minimum growth inhibitory concentration (MIC). As to the method: as §1, §2
In another data set the test system is P. vulgalis OX-19. The data set is described as above. Type of data set: cell-based. To be noted: P. vulgalis OX-19; Mueller Hinton agar, 10^6/ml, 37°C for 16 hours; read-out: minimum growth inhibitory concentration (MIC). How it is done: as §1, §2
A further data set concerns M. euteus ATCC 9341. Described as above. Type of data set: cell-based. Particulars: M. euteus ATCC 9341; Mueller Hinton agar, 10^6/ml, 37°C for 16 hours; read-out: minimum growth inhibitory concentration (MIC). As to the method:
as §1, §2

A further data set concerns P. morganii IFO 3445. Described as above. Type of data set: cell-based. Particulars: Morganella morganii, IFO3445; P. morganii IFO 3445; Mueller Hinton agar, 10^6/ml, 37°C for 16 hours; read-out: minimum growth inhibitory concentration (MIC). How it is done: as §1, §2
Another data set deals with E. coli K12C600. The description is as above. To be noted: Escherichia coli; E. coli K12C600; Mueller Hinton agar, 10^6/ml, 37°C for 16 hours; read-out: minimum growth inhibitory concentration (MIC). Format: cell-based. As to the method:
as §1, §2

The subject of another data set is E. cloacae 963. The description is as above. To be noted: Enterobacter cloacae; E. cloacae 963; Mueller Hinton agar, 10^6/ml, 37°C for 16 hours; read-out: minimum growth inhibitory concentration (MIC). Format: cell-based. As to the method: as §1, §2
The next data set relates to S. typhic 901. Described as above. Format: cell-based. To be noted: Mueller Hinton agar, 10^6/ml, 37°C for 16 hours, read-out: minimum growth inhibitory concentration (MIC). As to the method: as §1, §2
For a further data set, the system named is S. enteritidis G14. The data set is described as above. To be noted: Salmonella enterica; S. enteritidis G14; Mueller Hinton agar, 10^6/ml, 37°C for 16 hours; read-out: minimum growth inhibitory concentration (MIC). Format: cell-based. How it is done:
as §1, §2

The test system of a further data set is P. aeruginosa NCTC 1049. Described as above. To be noted: Pseudomonas aeruginosa, NCTC1049; P. aeruginosa NCTC 1049; Mueller Hinton agar, 10^6/ml, 37°C for 16 hours; read-out: minimum growth inhibitory concentration (MIC). Type of data set: cell-based. How it is done:
as §1, §2

For the next data set, the system named is K. pneumoniae PC I 602. Described as above. Format: cell-based. Particulars: Klebsiella pneumoniae, PCI602; K. pneumoniae PC I 602; Mueller Hinton agar, 10^6/ml, 37°C for 16 hours; read-out: minimum growth inhibitory concentration (MIC). As to the method: as §1, §2
Another data set relates to S. pyogenes Cook. The description is as above. Type of data set: cell-based. Particulars: Streptococcus pyogenes; S. pyogenes Cook; Mueller Hinton agar, 10^6/ml, 37°C for 16 hours; read-out: minimum growth inhibitory concentration (MIC). As to the method: as §1, §2
The test system of another data set is P. rettgeric IFO3850. The data set is described as above. Type of data set: cell-based. Particulars: P. rettgeric IFO3850; Mueller Hinton agar, 10^6/ml, 37°C for 16 hours; read-out: minimum growth inhibitory concentration (MIC). How it is done:
as §1, §2

Data set [1] has as its system alkali phosphatase (derived from calf intestines). Put plainly: Conversion by alkali phosphatase, analyzed by liquid chromatography. Format: in vitro ADME. To be noted: 2 mg in 1 ml glycine buffer pH 7.0, 20U alkali phosphatase, 37°C for 1 hour, liquid chromatography RP-18, UV 260 nm. As to the method: 2 mg of the captioned compound was dissolved in 1 ml of a glycine buffer having pH of 7.0, and 20U of commercial alkali phosphatase (derived from calf intestines) was charged. The solution was kept at 37°C for 1 hour, and then analyzed by liquid chromatography [column: RP-18, elution solvent: a water/methanol solvent mixture, detection: UV wavelength 260 nm].

Converted amounts (≈) assume the structure as drawn.

The results in this text go back to patent EP0373216A1, “CEPHALOSPORIN COMPOUNDS OR THEIR SALTS, PROCESS FOR THEIR PREPARATION, AND PARMACEUTICAL COMPOSITIONS” (TEIJIN LIMITED, priority 1987, dated 1988).

Consider `Nc1nc(/C(=N/Oc2ccccc2)C(=O)N[C@@H]2C(=O)N3C(C(=O)[O-])=C(C[n+]4cc(C(=O)O)c5cc(O)c(O)cc5c4)CS[C@H]23)cs1` [Compound VI, (6R,7R)-7-[(Z)-2-(2-amino-1,3-thiazol-4-yl)-2-phenoxyiminoacetamide]-3-(4-carboxy-6,7-dihydroxy-2-isoquinolinium)methyl-3-cephem-4-carboxylate], for which the MIC is less than 0.01 µg/mL with S. marcescens I AM 1184; 1.6 µg/mL (≈ 2.41 µM) with B. subtilis ATCC 6633; 3.1 µg/mL (≈ 4.68 µM) with S. aureus Terajima; less than 0.01 µg/mL in the data set with P. vulgalis OX-19; 0.8 µg/mL (≈ 1.21 µM) in the data set on M. euteus ATCC 9341; 0.02 µg/mL (≈ 0.0302 µM) in the data set with P. morganii IFO 3445. Moreover, the MIC is 0.02 µg/mL (≈ 0.0302 µM) with E. coli K12C600; 0.05 µg/mL (≈ 0.0755 µM) in the data set with E. cloacae 963; less than 0.01 µg/mL in the data set on S. typhic 901; less than 0.01 µg/mL in the data set on S. enteritidis G14; 3.1 µg/mL (≈ 4.68 µM) with P. aeruginosa NCTC 1049; 0.02 µg/mL (≈ 0.0302 µM) with K. pneumoniae PC I 602. The MIC came to 0.8 µg/mL (≈ 1.21 µM) in the data set on S. pyogenes Cook and 0.02 µg/mL (≈ 0.0302 µM) with P. rettgeric IFO3850.

For the molecule `Nc1nc(/C(=N/Oc2cccc(C(=O)O)c2)C(=O)N[C@@H]2C(=O)N3C(C(=O)[O-])=C(C[n+]4ccc5cc(O)c(O)cc5c4)CS[C@H]23)cs1` [Compound VIII], the MIC was 0.1 µg/mL (≈ 0.151 µM) in the data set with S. marcescens I AM 1184; 0.3 µg/mL (≈ 0.453 µM) in the data set on B. subtilis ATCC 6633; 3.1 µg/mL (≈ 4.68 µM) with S. aureus Terajima; 0.02 µg/mL (≈ 0.0302 µM) with P. vulgalis OX-19; 1.6 µg/mL (≈ 2.41 µM) with M. euteus ATCC 9341; 0.03 µg/mL (≈ 0.0453 µM) in the data set on P. morganii IFO 3445. Besides, the MIC in the data set on E. coli K12C600 amounted to 0.05 µg/mL (≈ 0.0755 µM); in the data set with E. cloacae 963, 0.1 µg/mL (≈ 0.151 µM); in the data set on S. typhic 901, 0.03 µg/mL (≈ 0.0453 µM); in the data set with S. enteritidis G14 it was 0.03 µg/mL (≈ 0.0453 µM); in the data set with P. aeruginosa NCTC 1049 it was 0.2 µg/mL (≈ 0.302 µM); in the data set with K. pneumoniae PC I 602, 0.03 µg/mL (≈ 0.0453 µM). The MIC in the data set with S. pyogenes Cook turned out to be 0.8 µg/mL (≈ 1.21 µM); in the data set with P. rettgeric IFO3850, 0.02 µg/mL (≈ 0.0302 µM).

Regarding `Nc1nc(/C(=N/Oc2ccc(CC(=O)O)cc2)C(=O)N[C@@H]2C(=O)N3C(C(=O)[O-])=C(C[n+]4ccc5cc(O)c(O)cc5c4)CS[C@H]23)cs1` [Compound V], the MIC in the data set with S. marcescens I AM 1184 is 0.8 µg/mL (≈ 1.18 µM); in the data set on B. subtilis ATCC 6633, 1.6 µg/mL (≈ 2.36 µM); in the data set on S. aureus Terajima, 1.6 µg/mL (≈ 2.36 µM); in the data set on P. vulgalis OX-19 it was less than 0.01 µg/mL; with M. euteus ATCC 9341, 1.6 µg/mL (≈ 2.36 µM); with P. morganii IFO 3445, less than 0.01 µg/mL. The MIC in the data set with E. coli K12C600 stood at 0.02 µg/mL (≈ 0.0296 µM); with E. cloacae 963 it was 0.05 µg/mL (≈ 0.0739 µM); in the data set on S. typhic 901, 0.02 µg/mL (≈ 0.0296 µM); in the data set with S. enteritidis G14 it was 0.02 µg/mL (≈ 0.0296 µM); in the data set with P. aeruginosa NCTC 1049 it was 0.05 µg/mL (≈ 0.0739 µM); in the data set with K. pneumoniae PC I 602, 0.03 µg/mL (≈ 0.0443 µM). Moreover, the MIC was 0.8 µg/mL (≈ 1.18 µM) in the data set on S. pyogenes Cook and less than 0.01 µg/mL in the data set with P. rettgeric IFO3850.

Consider `Nc1nc(/C(=N/Oc2ccccc2)C(=O)N[C@@H]2C(=O)N3C(C(=O)[O-])=C(C[n+]4ccc5cc(O)c(O)cc5c4)CS[C@H]23)ns1` [Compound XI, (6R,7R)-[(Z)-2(5-amino-1,2,4-thiadiazol-3-yl)-2-phenoxyiminoacetamide]-3-(6,7-dihydroxy-2-isoquinolinium)methyl-3-cephem-carboxylate], for which the MIC in the data set on S. marcescens I AM 1184 was less than 0.01 µg/mL; with B. subtilis ATCC 6633, 0.4 µg/mL (≈ 0.646 µM); with S. aureus Terajima, 0.2 µg/mL (≈ 0.323 µM); in the data set with P. vulgalis OX-19, less than 0.01 µg/mL; with M. euteus ATCC 9341, 0.01 µg/mL (≈ 0.0161 µM); with P. morganii IFO 3445, less than 0.01 µg/mL. In addition, the MIC with E. coli K12C600 was 0.01 µg/mL (≈ 0.0161 µM); with E. cloacae 963 it was less than 0.01 µg/mL; in the data set on S. typhic 901, less than 0.01 µg/mL; in the data set on S. enteritidis G14 it was less than 0.01 µg/mL; in the data set with P. aeruginosa NCTC 1049 it was 0.2 µg/mL (≈ 0.323 µM); in the data set on K. pneumoniae PC I 602 it was less than 0.01 µg/mL. Also, the MIC in the data set on S. pyogenes Cook was 0.05 µg/mL (≈ 0.0807 µM); in the data set on P. rettgeric IFO3850, less than 0.01 µg/mL.

Take `CC(=O)Oc1cc2cc[n+](CC3=C(C(=O)[O-])N4C(=O)[C@@H](NC(=O)/C(=N\Oc5ccccc5)c5csc(N)n5)[C@H]4SC3)cc2cc1O` [Compound X]: the MIC with S. marcescens I AM 1184 is less than 0.01 µg/mL; with B. subtilis ATCC 6633, 0.8 µg/mL (≈ 1.21 µM); in the data set with S. aureus Terajima, 1.6 µg/mL (≈ 2.42 µM); in the data set with P. vulgalis OX-19 it was less than 0.01 µg/mL; in the data set on M. euteus ATCC 9341 it was 1.6 µg/mL (≈ 2.42 µM); in the data set with P. morganii IFO 3445, less than 0.01 µg/mL. The MIC is less than 0.01 µg/mL with E. coli K12C600; less than 0.01 µg/mL in the data set on E. cloacae 963; less than 0.01 µg/mL in the data set on S. typhic 901; 0.01 µg/mL (≈ 0.0151 µM) in the data set on S. enteritidis G14; 0.1 µg/mL (≈ 0.151 µM) in the data set on P. aeruginosa NCTC 1049; less than 0.01 µg/mL with K. pneumoniae PC I 602. Moreover, the MIC was 0.8 µg/mL (≈ 1.21 µM) with S. pyogenes Cook and less than 0.01 µg/mL in the data set on P. rettgeric IFO3850.

In the case of `Nc1nc(/C(=N/Oc2ccccc2)C(=O)N[C@@H]2C(=O)N3C(C(=O)[O-])=C(C[n+]4ccc5cc(O)c(OS(=O)(=O)O)cc5c4)CS[C@H]23)cs1` [Example 6, (6R,7R)-7-[(Z)-2-(2-amino-1,3-thiazol-4-yl-2-phenoxyimino)acetamide]-3-(6,7-hydroxy-7-sulfonyloxy-2-isoquinolinium)methyl-3-cephem-4-carboxylate], the “Rf value of the main peak compared with the 6,7-dihydroxy-2-isoquinoliniummethyl compound (compound of Example 1)” value in [1] is given as “confirmed to agree”.
